BindingDB's records for doi:10.7270/Q2WH2TT9 (D3R/Abbott, 2020)

Each compound was assayed against Angiopoietin-1 receptor (Homo sapiens, UniProt Q02763) (assay: D3R2025).
Sequence of Angiopoietin-1 receptor (Q02763 whole entry): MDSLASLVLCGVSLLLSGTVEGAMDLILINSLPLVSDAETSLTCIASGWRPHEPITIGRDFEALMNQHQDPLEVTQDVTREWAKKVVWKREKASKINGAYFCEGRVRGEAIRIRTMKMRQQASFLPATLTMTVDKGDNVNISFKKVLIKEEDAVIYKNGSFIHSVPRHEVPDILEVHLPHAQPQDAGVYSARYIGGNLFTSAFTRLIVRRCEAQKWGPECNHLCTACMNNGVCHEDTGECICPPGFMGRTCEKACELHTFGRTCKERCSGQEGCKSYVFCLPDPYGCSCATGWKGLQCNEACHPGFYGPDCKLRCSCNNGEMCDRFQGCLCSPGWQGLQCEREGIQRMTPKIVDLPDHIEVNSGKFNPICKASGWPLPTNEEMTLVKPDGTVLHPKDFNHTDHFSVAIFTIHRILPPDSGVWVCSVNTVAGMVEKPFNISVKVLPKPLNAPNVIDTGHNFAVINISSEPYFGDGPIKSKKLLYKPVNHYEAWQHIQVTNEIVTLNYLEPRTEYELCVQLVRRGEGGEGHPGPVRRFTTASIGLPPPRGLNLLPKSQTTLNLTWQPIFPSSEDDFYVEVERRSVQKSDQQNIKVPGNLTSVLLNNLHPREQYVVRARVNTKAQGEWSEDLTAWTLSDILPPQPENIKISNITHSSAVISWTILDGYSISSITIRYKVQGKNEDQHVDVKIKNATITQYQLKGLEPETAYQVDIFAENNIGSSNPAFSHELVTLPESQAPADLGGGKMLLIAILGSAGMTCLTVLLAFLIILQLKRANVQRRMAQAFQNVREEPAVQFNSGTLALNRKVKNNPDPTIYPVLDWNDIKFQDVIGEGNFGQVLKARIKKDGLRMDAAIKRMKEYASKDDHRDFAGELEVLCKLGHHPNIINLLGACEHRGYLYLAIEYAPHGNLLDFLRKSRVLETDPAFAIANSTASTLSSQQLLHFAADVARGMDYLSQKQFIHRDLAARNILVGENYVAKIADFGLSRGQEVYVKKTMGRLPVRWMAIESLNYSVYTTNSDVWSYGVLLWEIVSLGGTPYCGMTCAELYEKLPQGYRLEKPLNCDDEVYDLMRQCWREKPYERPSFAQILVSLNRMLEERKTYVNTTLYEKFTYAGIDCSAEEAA
Text: D3R2025
`Nc1nccc(-c2c(-c3ccc(F)cc3)ncn2C2CCN(CC(F)(F)F)CC2)n1` [4-{5-(4-Fluoro-phenyl)-3-[1-(2,2,2-trifluoro-ethyl)-piperidin-4-yl]-3H-imidazol-4-yl}-pyrimidin-2-ylamine] was tested, and the Kd was 10 µM. In the case of `CC(C)c1nc(-c2cccc(NS(=O)(=O)c3c(F)cccc3F)c2F)c(-c2ccnc(Nc3ccc(N4CCOCC4)nc3)n2)s1` [D3RKN_29], the Kd is reported as 0.0034 µM. Compound `O=C(Nc1cccc(-c2nn3ncccc3c2-c2ccnc(Nc3cccc(C(F)(F)F)c3)n2)c1)c1c(F)cccc1F` [D3RKN_119] has a Kd of 10 µM. Work on `O=C(Nc1cccc(-c2nn3ncccc3c2-c2ccnc(Nc3ccccc3)n2)c1)c1c(F)cccc1F` [D3RKN_56] yielded a Kd of 2.5 µM. With `CNc1nccc(-c2c(-c3ccc(F)cc3)ncn2CCCN2CCOCC2)n1` the Kd was 10 µM. With `CCc1nc(-c2cccc(N(C)S(=O)(=O)c3ccccc3)c2)c(-c2ccnc(Nc3ccc(N4CCN(C(C)=O)CC4)nc3)n2)s1` [D3RKN_120] the Kd was 3.2 µM. In the case of `COc1nccc(-c2c(-c3ccc(F)cc3)ncn2CCCN2CCOCC2)n1` [4-{3-[4-(4-Fluoro-phenyl)-5-(2-methoxy-pyrimidin-4-yl)-imidazol-1-yl]-propyl}-morpholine], the Kd is reported as 10 µM. Compound `CNc1nccc(-c2c(-c3ccc(F)cc3)ncn2C2CCN(C)CC2)n1` [{4-[5-(4-Fluoro-phenyl)-3-(1-methyl-piperidin-4-yl)-3H-imidazol-4-yl]-pyrimidin-2-yl}-methyl-amine] has a Kd of 10 µM. `CC(C)c1nc(-c2cccc(NS(=O)(=O)c3ccccc3)c2)c(-c2ccnc(Nc3ccc4c(c3)CN(C)CC4)n2)s1` [D3RKN_117] was tested, and the Kd was 0.092 µM. With `CC(C)c1nc(-c2cccc(NS(=O)(=O)c3c(F)cccc3F)c2)c(-c2ccnc(Nc3ccc(N4CCOCC4)nc3)n2)s1` [D3RKN_118] the Kd was 0.027 µM. `CC(C)c1nc(-c2ccc(F)c(NS(=O)(=O)c3c(F)cccc3F)c2)c(-c2ccnc(Nc3ccc(N4CCOCC4)nc3)n2)s1` gave a Kd of 0.024 µM. `CCOC(=O)N1CCC(n2cnc(-c3ccc(F)cc3)c2-c2ccnc(N)n2)CC1` [4-[5-(2-Amino-pyrimidin-4-yl)-4-(4-fluoro-phenyl)-imidazol-1-yl]-piperidine-1-carboxylic acid ethyl ester] was tested, and the Kd was 10 µM. With `CCNc1nccc(-c2c(-c3ccc(F)cc3)ncn2C2CCN(C)CC2)n1` [Ethyl-{4-[5-(4-fluoro-phenyl)-3-(1-methyl-piperidin-4-yl)-3H-imidazol-4-yl]-pyrimidin-2-yl}-amine] the Kd was 10 µM. In the case of `O=C(Nc1cccc(-c2nn3ncccc3c2-c2ccnc(Nc3cccnc3)n2)c1)c1c(F)cccc1F`, the Kd is reported as 10 µM. For `CSc1nccc(-c2c(-c3ccc(F)cc3)ncn2CCCN2CCOCC2)n1`, the Kd was 10 µM. With `CC(=O)N1CCN(c2ccc(Nc3nccc(-c4sc(C(C)C)nc4-c4cccc(NS(=O)(=O)c5cccc(Cl)c5)c4)n3)cn2)CC1` [D3RKN_98] the Kd was 0.093 µM. `COc1cc(Nc2nccc(-c3c(-c4cccc(NC(=O)c5c(F)cccc5F)c4)nn4ncccc34)n2)cc(OC)c1OC` [D3RKN_124] showed a Kd of 0.2 µM. With `Cc1cc(-c2c(-c3ccc(F)cc3)ncn2CCCN2CCOCC2)nc(N)n1` the Kd was 10 µM.
